Data: patent US8969565B2, “Imidazo[1,2-b]pyridazine-based compounds, compositions comprising them, and methods of their use” (Lexicon Pharmaceuticals, Inc., priority 2012, dated 2015)

Experiments:
AAK1 [1] = target: T1, AAK1 (Homo sapiens, UniProt Q2M2I8); test: HEK281 cell-based assay (phospho-mu2 Western blot in transfected HEK293F cells); conditions: 3 hours incubation, read-out: CBA IC50
T1 construct: HA; expressed in transfected cells; host or cells: HEK293F
Method in brief: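 HEK293F cells co-transfected with full-length human AAK1/HA and Flag/AP2M1 were treated next day with 5 compound concentrations (3-fold dilutions) in DMEM+0.5% FBS for 3 hours at 37° C. Lysates were Western blotted for phospho-mu2, with total mu2 detected by anti-Flag.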

AAK1 [2] = target: T1, AAK1; test: P81 filter plate assay; type: biochemical; conditions: full-length human AAK1, Mu2 substrate

T1 sequence (Q2M2I8 1-863 isoform Q2M2I8-2): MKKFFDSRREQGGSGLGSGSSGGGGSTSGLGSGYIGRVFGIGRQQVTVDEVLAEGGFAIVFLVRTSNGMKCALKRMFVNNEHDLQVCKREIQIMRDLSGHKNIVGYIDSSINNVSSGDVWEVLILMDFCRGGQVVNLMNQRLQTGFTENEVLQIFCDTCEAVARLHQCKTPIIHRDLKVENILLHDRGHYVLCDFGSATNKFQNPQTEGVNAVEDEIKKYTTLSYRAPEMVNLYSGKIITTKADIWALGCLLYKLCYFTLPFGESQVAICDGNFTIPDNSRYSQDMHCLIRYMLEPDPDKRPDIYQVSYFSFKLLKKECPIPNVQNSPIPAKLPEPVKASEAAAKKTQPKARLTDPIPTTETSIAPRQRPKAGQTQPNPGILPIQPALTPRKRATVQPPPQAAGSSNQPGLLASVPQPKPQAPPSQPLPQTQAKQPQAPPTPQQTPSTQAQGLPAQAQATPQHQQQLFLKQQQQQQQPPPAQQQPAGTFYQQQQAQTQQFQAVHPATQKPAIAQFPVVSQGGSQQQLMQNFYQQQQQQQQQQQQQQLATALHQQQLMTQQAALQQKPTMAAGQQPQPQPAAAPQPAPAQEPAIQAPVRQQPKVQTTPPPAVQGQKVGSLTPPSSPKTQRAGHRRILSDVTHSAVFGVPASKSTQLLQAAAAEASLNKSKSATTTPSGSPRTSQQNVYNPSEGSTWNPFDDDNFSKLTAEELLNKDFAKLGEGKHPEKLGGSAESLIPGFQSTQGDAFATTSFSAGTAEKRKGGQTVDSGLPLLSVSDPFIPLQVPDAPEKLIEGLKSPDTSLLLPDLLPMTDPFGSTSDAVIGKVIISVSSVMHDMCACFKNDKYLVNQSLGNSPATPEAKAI

SMILES	IC50 (AAK1 [1])	IC50 (AAK1 [2])
CC(C)CCN1C(=O)CC[C@H]1CNc1ccc2ncc(-c3ccc(CN)cc3)n2n1 [(S)-5-(((3-(4-(aminomethyl)phenyl)imidazo[1,2-b]pyridazin-6-yl)amino)methyl)-1-isopentylpyrrolidin-2-one]	≤ 0.1 µM	≤ 0.01 µM
CC(C)(C)CCN1C(=O)CC[C@H]1CNc1ccc2ncc(Br)n2n1 [(S)-5-(((3-bromoimidazo[1,2-b]pyridazin-6-yl)amino)methyl)-1-(3,3-dimethylbutyl)pyrrolidin-2-one]	≤ 0.1 µM	≤ 0.01 µM
COc1ccccc1-c1cnc2ccc(NC[C@@H]3CCCN3C(=O)NC(C)(C)C)nn12 [(S)-N-(tert-butyl)-2-(((3-(2-methoxyphenyl)imidazo[1,2-b]pyridazin-6-yl)amino)methyl)pyrrolidine-1-carboxamide]	≤ 0.1 µM	≤ 0.01 µM
CC(C)(C)NC(=O)N1CCC[C@H]1CNc1ccc2ncc(-c3ccncc3)n2n1 [(S)-N-(tert-butyl)-2-(((3-(pyridin-4-yl)imidazo[1,2-b]pyridazin-6-yl)amino)methyl)pyrrolidine-1-carboxamide]	≤ 0.1 µM	≤ 0.01 µM
CC(C)(C)NC(=O)N1CCC[C@H]1CNc1ccc2ncc(-c3ccccc3)n2n1 [(S)-N-(tert-butyl)-2-(((3-phenylimidazo[1,2-b]pyridazin-6-yl)amino)methyl)pyrrolidine-1-carboxamide]	≤ 0.1 µM	≤ 0.01 µM
COc1ccccc1-c1cnc2ccc(NC[C@@H]3CCCN3C(=O)NC3CCCC3)nn12 [(S)-N-cyclopentyl-2-(((3-(2-methoxyphenyl)imidazo[1,2-b]pyridazin-6-yl)amino)methyl)pyrrolidine-1-carboxamide]	≤ 1 µM	≤ 0.01 µM
CC(C)(C)CNC(=O)N1CCC[C@H]1CNc1ccc2ncc(-c3ccccc3)n2n1 [(S)-N-neopentyl-2-(((3-phenylimidazo[1,2-b]pyridazin-6-yl)amino)methyl)pyrrolidine-1-carboxamide]	≤ 0.1 µM	≤ 0.01 µM
CC(C)(C)OC(=O)N1CCC[C@H]1CNc1ccc2ncc(C(F)F)n2n1 [(S)-Tert-butyl 2-(((3-(difluoromethyl)imidazo[1,2-b]pyridazin-6-yl)amino)methyl)pyrrolidine-1-carboxylate]	≤ 1 µM	≤ 0.01 µM
COc1ccccc1-c1cnc2ccc(NC[C@@H]3CCCN3C(=O)OC3CCC3)nn12 [(S)-cyclobutyl 2-(((3-(2-methoxyphenyl)imidazo[1,2-b]pyridazin-6-yl)amino)methyl)pyrrolidine-1-carboxylate]	≤ 0.1 µM	≤ 0.01 µM
O=C(OC1CCC1)N1CCC[C@H]1CNc1ccc2ncc(-c3ccncc3)n2n1 [(S)-cyclobutyl 2-(((3-(pyridin-4-yl)imidazo[1,2-b]pyridazin-6-yl)amino)methyl)pyrrolidine-1-carboxylate]	≤ 0.01 µM	≤ 0.01 µM
O=C(OC1CCC1)N1CCC[C@H]1CNc1ccc2ncc(Br)n2n1 [(S)-cyclobutyl 2-(((3-bromoimidazo[1,2-b]pyridazin-6-yl)amino)methyl)pyrrolidine-1-carboxylate]	≤ 0.1 µM	≤ 0.01 µM
NCc1ccc(-c2cnc3ccc(NC[C@@H]4CCCN4C(=O)OC4CCCC4)nn23)cc1 [(S)-cyclopentyl 2-(((3-(4-(aminomethyl)phenyl)imidazo[1,2-b]pyridazin-6-yl)amino)methyl)pyrrolidine-1-carboxylate]	≤ 0.01 µM	≤ 0.01 µM
O=C(OC1CCCC1)N1CCC[C@H]1CNc1ccc2ncc(-c3ccncc3)n2n1 [(S)-cyclopentyl 2-(((3-(pyridin-4-yl)imidazo[1,2-b]pyridazin-6-yl)amino)methyl)pyrrolidine-1-carboxylate]	≤ 0.01 µM	≤ 0.01 µM
O=C(OC1CCCC1)N1CCC[C@H]1CNc1ccc2ncc(Br)n2n1 [(S)-cyclopentyl 2-(((3-bromoimidazo[1,2-b]pyridazin-6-yl)amino)methyl)pyrrolidine-1-carboxylate]	≤ 0.01 µM	≤ 0.01 µM
O=C(OC1CCCC1)N1CCC[C@H]1CNc1ccc2ncc(-c3ccccc3)n2n1 [(S)-cyclopentyl 2-(((3-phenylimidazo[1,2-b]pyridazin-6-yl)amino)methyl)pyrrolidine-1-carboxylate]	≤ 0.1 µM	≤ 0.01 µM
[2H]C([2H])([2H])Oc1ncccc1-c1cnc2ccc(N3CC[C@H](N(C)C(=O)OCC)C3)nn12 [(S)-ethyl (1-(3-(2-(trideuteromethoxy)pyridin-3-yl)imidazo[1,2-b]pyridazin-6-yl)pyrrolidin-3-yl)(methyl)carbamate]	≤ 0.1 µM	≤ 0.01 µM
CCOC(=O)N(C)[C@H]1CCN(c2ccc3ncc(-c4cc(C)cnc4OC)n3n2)C1 [(S)-ethyl (1-(3-(2-methoxy-5-methylpyridin-3-yl)imidazo[1,2-b]pyridazin-6-yl)pyrrolidin-3-yl)(methyl)carbamate]	≤ 0.1 µM	≤ 0.01 µM

SMILES	IC50 (AAK1 [1])	IC50 (AAK1 [2])
CCOC(=O)N(C)[C@H]1CCN(c2ccc3ncc(-c4cccnc4OC)n3n2)C1 [(S)-ethyl (1-(3-(2-methoxypyridin-3-yl)imidazo[1,2-b]pyridazin-6-yl)pyrrolidin-3-yl)(methyl)carbamate]	≤ 0.1 µM	≤ 0.01 µM
CCOC(=O)N(C)[C@H]1CCN(c2ccc3ncc(-c4cc(F)ccc4OC)n3n2)C1 [(S)-ethyl (1-(3-(5-fluoro-2-methoxyphenyl)imidazo[1,2-b]pyridazin-6-yl)pyrrolidin-3-yl)(methyl)carbamate]	≤ 0.1 µM	≤ 0.01 µM
CCOC(=O)N(C)[C@H]1CCN(c2ccc3ncc(-c4cc(F)cnc4OC)n3n2)C1 [(S)-ethyl (1-(3-(5-fluoro-2-methoxypyridin-3-yl)imidazo[1,2-b]pyridazin-6-yl)pyrrolidin-3-yl)(methyl)carbamate]	≤ 0.1 µM	≤ 0.01 µM
COc1ncccc1-c1cnc2ccc(N(C)C[C@@H]3CCCN3C(=O)OC(C)C)nn12 [(S)-isopropyl 2-(((3-(2-methoxypyridin-3-yl)imidazo[1,2-b]pyridazin-6-yl)(methyl)amino)methyl)pyrrolidine-1-carboxylate]	≤ 0.01 µM	≤ 0.01 µM
COc1ncccc1-c1cnc2ccc(NC[C@@H]3CCCN3C(=O)OC(C)C)nn12 [(S)-isopropyl 2-(((3-(2-methoxypyridin-3-yl)imidazo[1,2-b]pyridazin-6-yl)amino)methyl)pyrrolidine-1-carboxylate]	≤ 0.01 µM	≤ 0.01 µM
CC(C)OC(=O)N1CCC[C@H]1CNc1ccc2ncc(C#N)n2n1 [(S)-isopropyl 2-(((3-cyanoimidazo[1,2-b]pyridazin-6-yl)amino)methyl)pyrrolidine-1-carboxylate]	≤ 1 µM	≤ 0.01 µM
COc1ccc(-c2cnc3ccc(N4CC[C@H](N(C)C(=O)OC(C)C)C4)nn23)c(OC)n1 [(S)-isopropyl (1-(3-(2,6-dimethoxypyridin-3-yl)imidazo[1,2-b]pyridazin-6-yl)pyrrolidin-3-yl)(methyl)carbamate]	≤ 0.1 µM	≤ 0.01 µM
[2H]C([2H])([2H])Oc1ncccc1-c1cnc2ccc(N3CC[C@H](N(C)C(=O)OC(C)C)C3)nn12 [(S)-isopropyl (1-(3-(2-(tri-deuteromethoxy)pyridin-3-yl)imidazo[1,2-b]pyridazin-6-yl)pyrrolidin-3-yl)(methyl)carbamate]	≤ 0.01 µM	≤ 0.01 µM
COc1ncc(C)cc1-c1cnc2ccc(N3CC[C@H](N(C)C(=O)OC(C)C)C3)nn12 [(S)-isopropyl (1-(3-(2-methoxy-5-methylpyridin-3-yl)imidazo[1,2-b]pyridazin-6-yl)pyrrolidin-3-yl)(methyl)carbamate]	≤ 0.1 µM	≤ 0.01 µM
COc1cc(-c2cnc3ccc(N4CC[C@H](N(C)C(=O)OC(C)C)C4)nn23)c(OC)nn1 [(S)-isopropyl (1-(3-(3,6-dimethoxypyridazin-4-yl)imidazo[1,2-b]pyridazin-6-yl)pyrrolidin-3-yl)(methyl)carbamate]	≤ 0.1 µM	≤ 0.01 µM
CC(C)OC(=O)N(C)[C@H]1CCN(c2ccc3ncc(-c4ccc(CN)cc4)n3n2)C1 [(S)-isopropyl (1-(3-(4-(aminomethyl)phenyl)imidazo[1,2-b]pyridazin-6-yl)pyrrolidin-3-yl)(methyl)carbamate]	≤ 0.01 µM	≤ 0.01 µM
COc1ccc(F)cc1-c1cnc2ccc(N3CC[C@H](N(C)C(=O)OC(C)C)C3)nn12 [(S)-isopropyl (1-(3-(5-fluoro-2-methoxyphenyl)imidazo[1,2-b]pyridazin-6-yl)pyrrolidin-3-yl)(methyl)carbamate]	≤ 0.01 µM	≤ 0.01 µM
COc1ncc(F)cc1-c1cnc2ccc(N3CC[C@H](N(C)C(=O)OC(C)C)C3)nn12 [(S)-isopropyl (1-(3-(5-fluoro-2-methoxypyridin-3-yl)imidazo[1,2-b]pyridazin-6-yl)pyrrolidin-3-yl)(methyl)carbamate]	≤ 0.1 µM	≤ 0.01 µM
CC(C)OC(=O)N(C)[C@H]1CCN(c2ccc3ncc(-c4cccnc4)n3n2)C1 [(S)-isopropyl methyl(1-(3-(pyridin-3-yl)imidazo[1,2-b]pyridazin-6-yl)pyrrolidin-3-yl)carbamate]	≤ 0.1 µM	≤ 0.01 µM
COc1nc(C)ccc1-c1cnc2ccc(N3CC[C@H](N(C)C(=O)OC(C)C)C3)nn12 [(S)-isopropyl(1-(3-(2-methoxy-6-methylpyridin-3-yl)imidazo[1,2-b]pyridazin-6-yl)pyrrolidin-3-yl)(methyl)carbamate]	≤ 0.01 µM	≤ 0.01 µM
CC(C)(C)COC(=O)N1CCC[C@H]1CNc1ccc2ncc(-c3ccc(CN)cc3)n2n1 [(S)-neopentyl 2-(((3-(4-(aminomethyl)phenyl)imidazo[1,2-b]pyridazin-6-yl)amino)methyl)pyrrolidine-1-carboxylate]	≤ 0.01 µM	≤ 0.01 µM
